The results in this text go back to US20260042771A1, “HETEROCYCLIC COMPOUND FOR INDUCING DEGRADATION OF G12V MUTANT KRAS PROTEIN” (Astellas Pharma Inc., priority 2022, published 2026).

The target in one assay is T1, RAS G12V (Homo sapiens, UniProt P01116, G12V).
T1 construct: host or cells: PA-TU-8902 human pancreatic cancer cells
In words: Test Example 1: RAS G12V degradation activity by Cell ELISA in PA-TU-8902. In kind it is cell-based. The following applies: for DC50: 50% degradation concentration of RAS G12V, PA-TU-8902 cells, 24 hours, Cell ELISA, corrected with β-actin; for Dmax: PaTu 8902, degradation rate at the most active concentration, DMSO = 0%, Example No. 7 at 3 μM = 100%, PA-TU-8902, 24 hours. The protocol:
Test Example 1: Evaluation of RAS G12V Degradation Activity on Human KRAS G12V Mutant-Positive Pancreatic Cancer Line PA-TU-8902
The RAS G12V degradation activity of test compounds was evaluated by measuring the expression levels of RAS G12V by Cell ELISA.
PA-TU-8902 cells (DSMZ, ACC 179) were seeded at 36 μL per well on 384-well plates (from Greiner bio-one) to give 1.5×10^4 cells per well. As for the cell culture conditions, DMEM medium (from Sigma-Aldrich) containing 10% fetal bovine serum (from Cytiva) was used in the presence of 5% CO2 at 37° C.
The next day, the test compounds (10 points having final concentrations in the range of 3 μM to 0.1 nM), the compound of Example No. 7 having a final concentration of 3 μM as a positive control and dimethyl sulfoxide (DMSO), which was the solvent for the test compounds, as a negative control were diluted 100-fold with a fresh medium and were added at 4 μL per well. The cells were cultured for 24 hours.
The next day, the culture supernatant was removed, and 4% paraformaldehyde phosphate buffer (from FUJIFILM Wako Pure Chemical Corporation) was added at 20 μL per well. The plates were allowed to stand for 30 minutes at room temperature to thus immobilize the cells. Then, the supernatant was removed, and 0.1% Triton X-100 (from Amersham Biosciences)-containing Phosphate buffered saline (PBS) was added at 20 μL per well. After allowing to stand at room temperature for 10 minutes, the supernatant was removed. PBS was added at 25 μL per well, and the supernatant was removed to thus wash each well. The washing was performed twice in total. Subsequent washing operations were performed in the same manner. Next, the supernatant was removed, and 0.5% sodium dodecyl sulfate (SDS; from ThermoFisher Scientific)-containing PBS was added at 20 μL per well. After allowing to stand at room temperature for 10 minutes, the supernatant was removed by centrifugation of the plates. After washing with PBS, the supernatant was removed by centrifugation, and blocking solution (PVDF Blocking Reagent for Can Get Signal [from TOYOBO Co., Ltd.]) was added at 20 μL per well. After allowing to stand for 30 minutes at room temperature, the supernatant was removed by centrifugation and a solution obtained by diluting, as primary antibodies, anti-Ras (G12V Mutant Specific) antibody (Ras (G12V Mutant Specific) (D2H12) Rabbit mAb; from Cell Signaling Technology; 500-fold diluted) and […] (Anti-beta Actin antibody; from Abcam; 5,000-fold diluted) with Can Get Signal Solution 2 (from TOYOBO Co., Ltd.) was added at 15 μL per well. The plates were allowed to stand overnight at 4° C.
The next day, the supernatant was removed by centrifugation and washed with PBS. The supernatant was removed by centrifugation, a solution obtained by diluting, as secondary antibodies, anti-rabbit IgG antibody (IRDye 800CW Goat anti-Rabbit IgG; from LI-COR Biosciences) and anti-mouse IgG antibody (IRDye 680RD Donkey anti-Mouse IgG; from LI-COR Biosciences) 1,000-fold with Can Get Signal Solution 2 was added at 15 μL per well. After allowing to stand at room temperature for 1 hour, the supernatant was removed by centrifugation and washed with PBS. After removing the supernatant, the plates were dried with air at room temperature for 2 hours or more, and the 700 nm and 800 nm fluorescent signals were measured with Aerius (from LI-COR Biosciences).
The degradation rate of RAS G12V was calculated with the RAS G12V signaling value at the time of addition of DMSO taken as 0%, which was corrected with the signaling value of β-actin, and with the RAS G12V signaling value at the time of addition of the compound of Example No. 7 at a final concentration of 3 μM taken as 100%. […]

Assay [1] has as its system human KRAS G12V mutant-positive pancreatic cancer line PA-TU-8902. In words: Test Example 3: non-anchorage-dependent cell growth inhibition, spheroid 3D culture. In kind it is cell-based. The following applies: PaTu 8902, 144 h, PA-TU-8902 spheroid 3D culture, 6 days; for IC50: CellTiter Glo 2.0. On the procedure: Test Example 3: Evaluation of Non-Anchorage-Dependent Cell Growth Inhibitory Effect on Human KRAS G12V Mutant-Positive Pancreatic Cancer Line PA-TU-8902
The non-anchorage-dependent cell growth inhibitory effect of test compounds was evaluated by spheroid 3D cell culture.
PA-TU-8902 cells were seeded on low-cell-adhesive round bottom 384-well plates (PrimeSurface: from Sumitomo Bakelite) at 36 µL/well to give 5×10^2 cells per well. The cell culture was performed under the same conditions as in Test Example 1.
The next day, the test compounds (8 to 10 points having final concentrations in the range of 3 μM to 0.1 nM) and DMSO, which was the solvent for the test compounds, as a negative control were diluted 100-fold with a fresh medium and were added at 4 μL per well. After culturing in the presence of 5% CO2 at 37° C. for 6 days, CellTiter Glo 2.0 (from Promega) was added at 20 μL per well. After stirring with a plate mixer (from FINEPCR) at normal temperature for 1 hour, the luminescent signals were measured with ARVO X3 (from PerkinElmer).
With the signaling value in treatment with DMSO taken as 0% inhibition and with the signaling value in the medium alone without cells taken as 100% inhibition, the 50% inhibitory concentration values (IC50) were calculated by Sigmoid-Emax nonlinear regression analysis. The inhibition rate at 30 nM was calculated for Example No. 17.

For orientation: DC50 means the concentration at which degradation of the target reaches its halfway point. As a reminder, the Dmax is the greatest extent of degradation seen. As a reminder, the IC50 is the point on the concentration scale where inhibition reaches its midpoint. Read a high IC50 as a need for much substance. The inhibition is the drop in the measured response relative to a control, in per cent.

T1 sequence (P01116 1-188 isoform P01116-2 G12V): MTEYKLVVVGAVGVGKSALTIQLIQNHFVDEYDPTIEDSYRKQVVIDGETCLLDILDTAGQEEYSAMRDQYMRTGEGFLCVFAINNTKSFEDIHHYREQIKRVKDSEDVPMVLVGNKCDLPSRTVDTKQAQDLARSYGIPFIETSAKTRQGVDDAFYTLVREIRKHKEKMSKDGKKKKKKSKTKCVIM

With `CO[C@@H](C)COc1nc(OC2CN(C(=O)NCCN(C)C)C2)c2cc(C3CC3)c(-c3c(C)c(F)cc4[nH]ncc34)c(OCc3ccc(C(=O)N4CCN(Cc5ccc6c(c5)n(C)c(=O)n6C5CCC(=O)NC5=O)C[C@@H]4C)cc3)c2n1` (some centres unmarked) [Example 1], at RAS G12V, the half-maximal degradation concentration (DC50) was 6 nM and the Dmax stood at 77%. In assay [1], this compound registered a 50% inhibitory concentration (IC50) of 42 nM.
In the case of `CO[C@@H](C)COc1nc(N2CC[C@@H](N)[C@@H](F)C2)c2cc(C3CC3)c(-c3c(C)c(F)cc4[nH]ncc34)c(OCc3ccc(C(=O)N4CCN(Cc5ccc6c(c5)n(C)c(=O)n6C5CCC(=O)NC5=O)C[C@@H]4C)cc3)c2n1` (stereo partly drawn) [Example 3, 3-(5-{[(3S)-4-{4-[({4-[(3S,4R)-4-amino-3-fluoropiperidin-1-yl]-6-cyclopropyl-7-(6-fluoro-5-methyl-1H-indazol-4-yl)-2-[(2S)-2-methoxypropoxy]quinazolin-8-yl)oxy)methyl]benzoyl}-3-methylpiperazin-1-yl]methyl}-3-methyl-2-oxo-2,3-dihydro-1H-benzimidazol-1-yl)piperidine-2,6-dione], at RAS G12V, the DC50 is 29 nM and the Dmax stood at 74%. The midpoint of inhibition in assay [1], the IC50, lay at 67 nM.
As for `CO[C@@H](C)COc1cc(OC2CN(C(=O)NCCN(C)C)C2)c2cc(C3CC3)c(-c3c(C)c(F)cc4[nH]ncc34)c(OCc3ccc(C(=O)N4CCN(Cc5ccc6c(c5)n(C)c(=O)n6C5CCC(=O)NC5=O)C[C@@H]4C)cc3)c2n1` (some centres unmarked) [Example 17], at RAS G12V, the 50% degradation concentration (DC50) was 9 nM and the Dmax came to 70%. The inhibition at 0.03 µM in assay [1] (30 nM, CellTiter Glo 2.0, read-out: inhibition rate at 30 nM) was 50%.
Regarding `CO[C@@H](C)COc1nc(N2CC[C@H]2C(N)=O)c2cc(C3CC3)c(-c3c(C)c(F)cc4[nH]ncc34)c(OCc3ccc(CN4CCN(Cc5ccc6c(N7CCC(=O)NC7=O)nn(C)c6c5)C[C@@H]4C)cc3)c2n1` (atropisomer, axis not shown) [Example 19], at RAS G12V, the half-maximal degradation concentration (DC50) is 26 nM and the Dmax turned out to be 78%. The same compound gave an IC50 in assay [1] of 68 nM.
The like results for `CO[C@@H](C)COc1nc(NCc2cccnc2)c2cc(C3CC3)c(-c3c(C)c(F)cc4[nH]ncc34)c(OCc3ccc(C(=O)N4CCN(Cc5ccc6c(c5)n(C)c(=O)n6C5CCC(=O)NC5=O)C[C@@H]4C)cc3)c2n1` (some centres unmarked) [Example 4] were, in that order, 7 nM, 83% and 74 nM.
The like results for `Cc1c(F)cc2[nH]ncc2c1-c1c(C2CC2)cc2c(NC3CN(c4ncccn4)C3)nc(OCC(C)(C)CN(C)C)nc2c1OCc1ccc(C(=O)N2CCN(Cc3ccc4c(c3)n(C)c(=O)n4C3CCC(=O)NC3=O)C[C@@H]2C)cc1` (some centres unmarked) [Example 8] were, in that order, 5 nM, 81% and 48 nM.
Regarding `CO[C@@H](C)COc1nc(N2CC(C#N)C2)c2cc(C3CC3)c(-c3c(C)c(F)cc4[nH]ncc34)c(OCc3ccc(C(=O)N4CCC5(CCN(CCOc6cccc(N7CCC(=O)NC7=O)c6)CC5)CC4)cc3)c2n1` (atropisomer, axis not shown) [Example 22], half-maximal inhibition in assay [1] (IC50) required 5 nM. This lies in the single-digit nanomolar range.
For the compound `CO[C@@H](C)COc1nc(N2CC(C#N)C2)c2cc(C3CC3)c(-c3c(C)c(F)cc4[nH]ncc34)c(OCc3ccc(C(=O)N4CC5(CN(Cc6ccc7c(N8CCC(=O)NC8=O)nn(C)c7c6)C5)C4)cc3)c2n1` (atropisomer, axis not shown) [Example 16], on RAS G12V, the DC50 was determined as 162 nM and the Dmax worked out at 95%. In addition, the half-maximal inhibitory concentration (IC50) in assay [1] turned out to be 255 nM.
The like results for `Cc1c(F)cc2[nH]ncc2c1-c1c(C2CC2)cc2c(N3CC[C@H]3C(N)=O)nc(OC[C@@H]3CCN(C)C3)nc2c1OCc1ccc(C(=O)N2CCN(Cc3ccc4c(N5CCC(=O)NC5=O)nn(C)c4c3)C[C@@H]2C)cc1` (atropisomer, axis not shown) [Example 7] were, in that order, 38 nM, 103% and 55 nM.
The like results for `CO[C@@H](C)COc1cc(OC2CN(C(=O)NCCN(C)C)C2)c2cc(C3CC3)c(-c3c(C)c(F)cc4[nH]ncc34)c(OCc3ccc(C(=O)N4CCN(Cc5ccc6c(N7CCC(=O)NC7=O)nn(C)c6c5)C[C@@H]4C)cc3)c2n1` (atropisomer, axis not shown) [Example 18] were, in that order, 65 nM, 78% and 149 nM.
The like results for `CO[C@@H](C)COc1nc(N2CC(C#N)C2)c2cc(C3CC3)c(-c3c(C)c(F)cc4[nH]ncc34)c(OCc3ccc(C(=O)N4CCN(Cc5ccc6c(N7CCC(=O)NC7=O)nn(C)c6c5)CC4)cc3)c2n1` (atropisomer, axis not shown) [Example 12] were, in that order, 13 nM, 87% and 33 nM.
In the case of `CO[C@@H](C)COc1nc(N2CC(C#N)C2)c2cc(C3CC3)c(-c3c(C)c(F)cc4[nH]ncc34)c(OCc3ccc(C(=O)N4CCC5(CN(Cc6ccc7c(N8CCC(=O)NC8=O)nn(C)c7c6)C5)C4)cc3)c2n1` (atropisomer, axis not shown) [Example 13], at RAS G12V, it took 27 nM to reach half-maximal degradation (DC50) and the Dmax turned out to be 104%. For the same compound, in assay [1], the midpoint of inhibition, the IC50, lay at 55 nM.
The like results for `Cc1c(F)cc2[nH]ncc2c1-c1c(C2CC2)cc2c(N3CC(C#N)C3)nc(OCC(C)(C)CN(C)C)nc2c1OCc1ccc(C(=O)N2CCN(Cc3ccc4c(N5CCC(=O)NC5=O)nn(C)c4c3)C[C@@H]2C)cc1` (atropisomer, axis not shown) [Example 11] were, in that order, 11 nM, 88% and 18 nM.
Consider `CO[C@@H](C)COc1nc(N2CC(C#N)C2)c2cc(C3CC3)c(-c3c(C)c(F)cc4[nH]ncc34)c(OCc3ccc(C(=O)N4CC[C@H](CN(C)Cc5ccc6c(N7CCC(=O)NC7=O)nn(C)c6c5)C4)cc3)c2n1` (atropisomer, axis not shown) [Example 15], for which, at RAS G12V, the DC50 was 92 nM and the Dmax worked out at 85%. In assay [1], this compound came in with an IC50 of 139 nM.
The like results for `Cc1c(F)cc2[nH]ncc2c1-c1c(C2CC2)cc2c(N3CCOCC3)nc(OCC(C)(C)CN(C)C)nc2c1OCc1ccc(C(=O)N2CCN(Cc3ccc4c(c3)n(C)c(=O)n4N3CCC(=O)NC3=O)C[C@@H]2C)cc1` (atropisomer, axis not shown) [Example 9] were, in that order, 6 nM, 88% and 47 nM.
`Cc1c(F)cc2[nH]ncc2c1-c1c(C2CC2)cc2c(N3CC(C#N)C3)nc(OC3CCOCC3)nc2c1OCc1ccc(C(=O)N2CCN(Cc3ccc4c(N5CCC(=O)NC5=O)nn(C)c4c3)C[C@@H]2C)cc1` (atropisomer, axis not shown) [Example 21] displayed an IC50 in assay [1] of 11 nM.
